Assays:
[1] = test system: Propionibakterium acnes; assay: Suspension test, antimicrobial efficacy (reduction factor of cell count vs control); format: cell-based, P. acnes (DSM 1897); details: after 24h at 37°C, anaerobic medium; cfu(Kontrolle)/cfu(Testsubstanz); A: 0,2 µg/ml TPI 2007; B: 250 µg/ml Decan-1,2-diol; C: 250 µg/ml Decan-1,2-diol + 0,2 µg/ml TPI 2007
Method: Die antimikrobielle Wirksamkeit der erfindungsgemäßen dermatologischen und/oder kosmetischen Zubereitung gegen Propionibakterium acnes (P. acnes) wurde zum Vergleich mit verschiedenen Formulierungen untersucht.
Dazu wurde das Bakterium P. acnes (DSM 1897) aus einem nach EN 12353 angelegten Cryoröhrchen auf einer entsprechenden Agarplatte (Cost-Agar) ausgestrichen und bei 37°C 5 Tage unter anaeroben Bedingungen bebrütet.
Eine Impföse der Bakterien wurde zu 10mL anaerobem Medium gegeben und im Impedanzgerät mit dem Programm PR37NT unter anaeroben Bedingungen inkubiert. Anschließend wurde diese Bakteriensuspension auf eine OD (optische Dichte) von 0,3-0,5 eingestellt. Die eingestellte Bakteriensuspension wurde dann 1:10 mit anaerobem Medium verdünnt, um eine Keimzahl von ungefähr 5*10^6 zu gewährleisten. Diese Bakteriensuspension wurde anschließend für den Test eingesetzt.
Der Suspensionstest wurde per Hand durchgeführt. Hierzu wurden 500µL der zu testenden Wirkstofflösungen bzw. im Falle der Kontrollen 500 µl anaerobem Medium in Mikroreaktionsgefäßen vorgelegt. Anschließend wurden 500 µl der Bakteriensuspension hinzugegeben und gemischt. Zum Zeitpunkt t0 wurde eine Probe aus den Kontrollen entnommen. Die Mikroreaktionsgefäße wurden nun im Thermoschüttler bei 37 °C inkubiert. […]

[2] = test system: Propionibakterium acnes; details: 0,2% Decan-1,2-diol alone; cited from earlier work

CCCCCCCCC(O)CO (centres unmarked) [Probe B, Decan-1,2-diol]
Reduktionsfaktor [1]: 1
antibakterielle Wirkung im Suspensionstest [2]: so gut wie keine antibakterielle Wirkung

— patent EP3236920B1, “ANTIMICROBIAL PREPARATION COMPRISING BISPYRIDINIUM ALKANES, 1- OR 2-(C1 TO C24 ALKYL) GLYCEROL ETHER AND ALKANE-1,2-DIOLS” (Beiersdorf AG, priority 2014, dated 2016)
